Data from ChEMBL document CHEMBL4265949, “Design, synthesis and biological evaluation of 2-substituted 3-hydroxy-6-methyl-4H-pyran-4-one derivatives as Pseudomonas aeruginosa biofilm inhibitors” (Eur J Med Chem, 2018).
Active and inactive are the calls of the source. No cut-off for these calls is given here.

How the values were obtained:
Pseudomonas aeruginosa [1] = test: Antibacterial activity against Pseudomonas aeruginosa PAO1 recorded every 10 mins for 15 hrs by broth micro dilution method; type: functional
Pseudomonas aeruginosa [2] = test: Inhibition of biofilm formation of Pseudomonas aeruginosa PAO1 at 20 uM after 24 hrs by crystal violet staining based assay relative to control; type: functional; settings: PAO1, 24 h
Pseudomonas aeruginosa [3] = test: Inhibition of biofilm formation of Pseudomonas aeruginosa PAO1 after 24 hrs by confocal laser scanning microscopy; type: functional, organism-based
Pseudomonas aeruginosa [4] = test: Inhibition of biofilm formation of Pseudomonas aeruginosa PAO1 at 2.5 uM after 24 hrs by crystal violet staining based assay relative to control; type: functional; settings: PAO1, 24 h
Pseudomonas aeruginosa [5] = test: Antibacterial activity against Pseudomonas aeruginosa PAO1 up to 40 uM after 13 hrs by broth micro dilution method; type: functional, organism-based
[6] = Effect on GFP (unknown origin) protein expression in Pseudomonas aeruginosa PAO1 up to 40 uM after 12 hrs by GFP reporter gene assay; settings: unidentified
[7] = target: T1, Anthranilate--CoA ligase (Pseudomonas aeruginosa (strain ATCC 15692 / DSM 22644 / CIP 104116 /JCM 14847 / LMG 12228 / 1C / PRS 101 / PAO1)) (UniProt Q9I4X3); test: Inhibition of Pseudomonas aeruginosa PAO1 GFP-fused quorum sensing pqsA assessed as decrease in pyocyanin production
T1 sequence (whole entry): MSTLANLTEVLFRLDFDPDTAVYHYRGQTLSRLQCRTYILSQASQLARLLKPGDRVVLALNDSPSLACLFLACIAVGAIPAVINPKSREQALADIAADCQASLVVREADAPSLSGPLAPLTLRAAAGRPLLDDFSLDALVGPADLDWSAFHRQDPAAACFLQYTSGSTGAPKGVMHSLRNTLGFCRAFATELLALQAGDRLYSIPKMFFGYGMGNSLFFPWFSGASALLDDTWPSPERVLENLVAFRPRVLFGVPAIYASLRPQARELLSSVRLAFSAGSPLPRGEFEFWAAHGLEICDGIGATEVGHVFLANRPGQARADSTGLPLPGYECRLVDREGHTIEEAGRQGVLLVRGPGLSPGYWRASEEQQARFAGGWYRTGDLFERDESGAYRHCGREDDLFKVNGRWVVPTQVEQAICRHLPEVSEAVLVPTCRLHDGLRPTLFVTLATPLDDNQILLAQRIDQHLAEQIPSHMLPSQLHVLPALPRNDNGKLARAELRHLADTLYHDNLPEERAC

[8] = target: 3-(3-hydroxydecanoyloxy)decanoate synthase (Pseudomonas aeruginosa (strain ATCC 15692 / PAO1 / 1C / PRS 101 / LMG12228)) (UniProt Q51559); test: Inhibition of Pseudomonas aeruginosa PAO1 GFP-fused quorum sensing rhlA up to 40 uM measured every 15 mins up to 12 hrs by GFP reporter gene assay
[9] = target: Elastase (Pseudomonas aeruginosa (strain ATCC 15692 / PAO1 / 1C / PRS 101 / LMG12228)) (UniProt P14756); test: Inhibition of Pseudomonas aeruginosa PAO1 GFP-fused quorum sensing lasB assessed as decrease in elastase activity up to 40 uM incubated for 24 hrs recorded every 10 mins for 3 hrs
Elastase (Pseudomonas aeruginosa (strain ATCC 15692 / PAO1 / 1C / PRS 101 / LMG12228)), sequence (P14756 198-498 limits assumed): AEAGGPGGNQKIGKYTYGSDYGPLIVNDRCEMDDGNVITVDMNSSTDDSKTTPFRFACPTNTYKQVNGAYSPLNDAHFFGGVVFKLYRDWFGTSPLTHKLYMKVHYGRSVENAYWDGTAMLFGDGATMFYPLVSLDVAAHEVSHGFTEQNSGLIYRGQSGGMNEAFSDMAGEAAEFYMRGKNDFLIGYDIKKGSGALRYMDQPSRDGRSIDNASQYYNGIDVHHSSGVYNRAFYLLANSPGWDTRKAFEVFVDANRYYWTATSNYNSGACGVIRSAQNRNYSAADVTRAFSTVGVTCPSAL

[10] = target: T1, Anthranilate--CoA ligase (Pseudomonas aeruginosa (strain ATCC 15692 / DSM 22644 / CIP 104116 /JCM 14847 / LMG 12228 / 1C / PRS 101 / PAO1)); test: Inhibition of Pseudomonas aeruginosa PAO1 GFP-fused quorum sensing pqsA measured every 15 mins up to 12 hrs by GFP reporter gene assay
[11] = target: T1, Anthranilate--CoA ligase (Pseudomonas aeruginosa (strain ATCC 15692 / DSM 22644 / CIP 104116 /JCM 14847 / LMG 12228 / 1C / PRS 101 / PAO1)); test: Inhibition of Pseudomonas aeruginosa PAO1 GFP-fused quorum sensing pqsA assessed as decrease in pyocyanin production at 40 uM
[12] = target: 3-(3-hydroxydecanoyloxy)decanoate synthase (Pseudomonas aeruginosa (strain ATCC 15692 / PAO1 / 1C / PRS 101 / LMG12228)) (UniProt Q51559); test: Inhibition of Pseudomonas aeruginosa PAO1 GFP-fused quorum sensing rhlA assessed as decrease in rhamnolipid lipid levels up to 40 uM measured after 30 mins
RAW264.7 [13] = test: Cytotoxicity against mouse RAW264.7 cells assessed as decrease in cell viability at <= 2.5 uM after 24 hrs by MTT assay; type: cell-based; settings: raw264.7, 24 h
RAW264.7 [14] = test: Cytotoxicity against mouse RAW264.7 cells assessed as decrease in cell viability at 50 uM after 24 hrs by MTT assay; type: cell-based; settings: raw264.7, 24 h
[15] = target: Elastase (Pseudomonas aeruginosa (strain ATCC 15692 / PAO1 / 1C / PRS 101 / LMG12228)) (UniProt P14756); test: Inhibition of Pseudomonas aeruginosa PAO1 GFP-fused quorum sensing lasB up to 40 uM measured every 15 mins up to 12 hrs by GFP reporter gene assay
Pseudomonas aeruginosa [16] = test: Inhibition of biofilm formation of Pseudomonas aeruginosa PAO1 after 24 hrs by crystal violet staining based assay; type: functional, organism-based

SMILES	MIC (Pseudomonas aeruginosa [1]) [µM]	inhibition at 20 µM (Pseudomonas aeruginosa [2]) [%]	also measured
Cc1cc(=O)c(O)c(C(O)c2cccc(Br)c2)o1 (stereo unspecified)	> 512	5.67	–
CCCCCCCC(O)c1oc(C)cc(=O)c1O (stereo unspecified)	> 512	15.8	–
Cc1cc(=O)c(O)c(Cc2ccc(C(F)(F)F)cc2)o1	> 512	32.8	–
Cc1cc(=O)c(O)c(C(O)c2ccc(S(F)(F)(F)(F)F)cc2)o1 (stereo unspecified)	> 512	31.7	–
CCCC(O)c1oc(C)cc(=O)c1O (stereo unspecified)	> 512	33.2	–
Cc1cc(=O)c(O)c(C(O)c2ccccc2F)o1 (stereo unspecified)	> 512	5.34	–
Cc1cc(=O)c(O)c(Cc2ccc(Cl)cc2)o1	> 512	34.2	–
Cc1cc(=O)c(O)c(Cc2ccccc2)o1	> 512	27.4	–
COc1ccc(C#Cc2ccc(C(O)c3oc(C)cc(=O)c3O)cc2)cc1 (stereo unspecified)	> 512	26.3	–
CCCCCC(O)c1oc(C)cc(=O)c1O (stereo unspecified)	> 512	44.6	–
CCCCCCC(O)c1oc(C)cc(=O)c1O (stereo unspecified)	> 512	41.5	–
CCCCC(O)c1oc(C)cc(=O)c1O (stereo unspecified)	> 512	22	–
Cc1cc(=O)c(O)c(C(O)c2ccc(C#CC3CCCCC3)cc2)o1 (stereo unspecified)	> 512	36.9	–
Cc1cc(=O)c(O)c(C(O)c2ccc(C#Cc3ccc(C(F)(F)F)cc3)cc2)o1 (stereo unspecified)	> 512	24.9	–
CSCCC(O)c1oc(C)cc(=O)c1O (stereo unspecified)	> 512	25.9	–
Cc1cc(=O)c(O)c(C(O)c2ccccc2Br)o1 (stereo unspecified)	> 512	9.04	–
Cc1cc(=O)c(O)c(Cc2ccc(F)cc2)o1	> 512	30.5	–
Cc1cc(=O)c(O)c(C(O)c2cccc(F)c2)o1 (stereo unspecified)	> 512	12.3	–

More lines, main results first:

MIC (Pseudomonas aeruginosa [1]) [µM]	SMILES	inhibition at 20 µM (Pseudomonas aeruginosa [2]) [%]	also measured
> 512	Cc1cc(=O)c(O)c(C(O)c2ccc(OCc3ccc([N+](=O)[O-])cc3)cc2)o1 (stereo unspecified)	22	–
> 512	Cc1cc(=O)c(O)c(C(O)c2ccc(-c3ccccc3)cc2)o1 (stereo unspecified)	3.26	–
> 512	Cc1cc(=O)c(O)c(C(O)c2ccc(C#Cc3ccc(F)cc3)cc2)o1 (stereo unspecified)	39.1	–
> 512	Cc1cc(=O)c(O)c(C(O)c2ccc(C#Cc3cccc(F)c3)cc2)o1 (stereo unspecified)	31.5	–
> 512	Cc1cc(=O)c(O)c(C(O)c2ccc(-n3ccnc3)cc2)o1 (stereo unspecified)	17.3	–
> 512	Cc1cc(=O)c(O)c(C(O)c2ccc(C#Cc3ccccn3)cc2)o1 (stereo unspecified)	37.7	–
> 512	Cc1cc(=O)c(O)c(C(O)c2ccc(/C=C/c3ccccc3)cc2)o1 (stereo unspecified)	35.1	–
> 512	Cc1cc(=O)c(O)c(C(O)c2ccc([N+](=O)[O-])cc2)o1 (stereo unspecified)	51	inhibition (Pseudomonas aeruginosa [3]): Dose-dependent effect; inhibition at 2.5 µM (Pseudomonas aeruginosa [4]): 30%; Activity (Pseudomonas aeruginosa [5]): inactive; Activity [6]: Non-Toxic; inhibition [7]: Dose-dependent effect; inhibition [8]: inactive; inhibition [9]: inactive; inhibition [10]: Dose-dependent effect; inhibition [11]: 60%; inhibition [12]: inactive; Activity (RAW264.7 [13]): Non-Toxic; Activity (RAW264.7 [14]): Toxic; inhibition [15]: inactive; inhibition (Pseudomonas aeruginosa [16]): Dose-dependent effect
> 512	Cc1cc(=O)c(O)c(C(O)c2ccc(CCc3ccccc3)cc2)o1 (stereo unspecified)	28.7	–
> 512	Cc1cc(=O)c(O)c(C(O)c2ccc(Cc3ccccc3)cc2)o1 (stereo unspecified)	20.6	–
> 512	Cc1cc(=O)c(O)c(C(O)c2ccc(OCc3ccccc3)cc2)o1 (stereo unspecified)	22	–
> 512	Cc1cc(=O)c(O)c(C(O)c2ccc(-c3ccc([N+](=O)[O-])cc3)cc2)o1 (stereo unspecified)	48.5	–
> 512	Cc1cc(=O)c(O)c(C(O)c2ccc(C#Cc3ccccc3)cc2)o1 (stereo unspecified)	30.2	–
